Source: patent US6242494A, “Substituted β-amino acid inhibitors of methionine aminopeptidase-2” (Abbott Laboratories, priority 1999, dated 2001)
Structures can show the parent of a compound that is named as a salt.

The compounds below were run against T1, methionine aminopeptidase-2 (MetAP2) (Homo sapiens, UniProt P50579) (assay: Inhibition of MetAP2 enzyme activity (96-well, Met-Ala-Ser substrate, L-amino acid oxidase/peroxidase/ortho-dianisidine, 450 nm)). Settings: IC50, recombinant MetAP2 4 μg/mL, pH 7.4, Met-Ala-Ser substrate, 20 minutes.
T1 construct: made in house; host or cells: insect cells, baculovirus system (secreted, purified from culture supernatant)
Type: biochemical
Method: The ability of compounds of the present invention to inhibit methionine aminopeptidase 2 was evaluated using the following assay.
Assays for MetAP2 enzyme activity and MetAP2 inhibition were performed in 96-well microtiter plates. Compounds to be tested for MetAP2 inhibition were dissolved in dimethyl-sulfoxide at 10 mM and diluted ten-fold in assay buffer ([…], pH 7.4, 100 mM NaCl). Ten microliters of solution of each compound to be tested for inhibition were introduced into each cell of the plate, with each compound being tested in triplicate.
The absorbence at 450 nanometers was measured every 20 seconds over a period of twenty minutes using an automaic plate reader (Molecular Devices, CA, USA). The Vmax in mOD/min, calculated for each well was used to represent MetAP2 activity. The IC50 for each inhibitor was obtained by plotting the remaining MetAP2 activity versus inhibitor concentration.

T1 sequence (P50579 whole entry): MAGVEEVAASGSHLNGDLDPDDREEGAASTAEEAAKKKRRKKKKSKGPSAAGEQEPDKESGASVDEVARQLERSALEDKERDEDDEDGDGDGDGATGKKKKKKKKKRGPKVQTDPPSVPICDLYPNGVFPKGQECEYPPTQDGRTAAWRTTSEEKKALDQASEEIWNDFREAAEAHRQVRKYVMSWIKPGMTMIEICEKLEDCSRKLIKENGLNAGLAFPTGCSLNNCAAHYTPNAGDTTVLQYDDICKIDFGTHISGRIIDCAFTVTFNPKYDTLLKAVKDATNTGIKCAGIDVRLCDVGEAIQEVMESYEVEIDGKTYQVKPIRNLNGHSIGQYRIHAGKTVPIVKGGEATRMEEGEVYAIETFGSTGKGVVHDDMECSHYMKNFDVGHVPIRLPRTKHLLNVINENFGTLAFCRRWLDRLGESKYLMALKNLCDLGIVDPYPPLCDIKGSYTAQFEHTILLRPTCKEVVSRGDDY

`CSCC[C@@H](N)C(O)C(=O)NCCCCc1ccccc1` (mixture of isomers) [Example 7, (2RS,3R)-N-(4-phenylbutyl)-3-amino-2-hydroxy-5-(methylthio)pentanamide hydrochloride] and `CSCC[C@@H](N)C(O)C(=O)NCCc1ccncc1` (mixture of isomers) [Example 19, (2RS,3R)-N-(2-(4-pyridyl)ethyl)-3-amino-2-hydroxy-5-(methylthio)pentanamide] are within 1.5-fold of each other in IC50: 2 µM for the first, 1.6 µM for the second.

`COc1ccc(CCNC(=O)C(O)[C@H](N)CCSC)cc1` (mixture of isomers) [Example 8, (2RS,3R) N-(2-(4-methoxyphenyl)ethyl)-3-amino-2-hydroxy-5-(methylthio)pentanamide hydrochloride] and `CSCC[C@@H](N)C(O)C(=O)NCCc1ccc(Oc2ccccc2)cc1` (mixture of isomers) [Example 11, (2RS,3R)-N-(2-(4-phenoxyphenyl)ethyl)-3-amino-2-hydroxy-5-(methylthio)pentanamide hydrochloride] are within 1.5-fold of each other in IC50: 2.3 µM for the first, 2.6 µM for the second.

Compared with `CCOC(=O)CCCNC(=O)C(O)[C@H](N)CCSCC` (mixture of isomers) [Example 16, (2RS,3R)-N-(3-(carboethoxy)propyl)-3-amino-2-hydroxy-5-(ethylthio)pentanamide hydrochloride], `CCOC(=O)CCCNC(=O)C(O)[C@H](N)Cc1ccccc1` (mixture of isomers) [Example 21, (2RS,3R)-N-(3-(carboethoxy)propyl)-3-amino-2-hydroxy-4-phenyl-butanamide hydrochloride] is 18-fold higher in IC50: 0.78 µM for the first, 14 µM for the second. The first is the more potent here.

Going from `CSCC[C@@H](N)C(O)C(=O)O` (mixture of isomers) [Example 18, (2RS,3R)-3-amino-2-hydroxy-5-(methylthio)pentanoic acid] to `CSCC[C@@H](N)C(O)C(=O)NCCc1cccnc1` (mixture of isomers) [Example 32, (2RS,3R)-N-(2-(3-pyridyl)ethyl)-3-amino-2-hydroxy-5-(methylthio)pentanamide], the IC50 rises from 0.15 µM to 1.4 µM (9.3-fold). The first is the more potent here.

Compared with `CCOC(=O)CCNC(=O)C(O)[C@H](N)Cc1ccccc1` (mixture of isomers) [Example 20, (2RS,3R)-N-(2-(carboethoxy)ethyl)-3-amino-2-hydroxy-4-phenyl-butanamide hydrochloride], `N[C@H](Cc1ccccc1)C(O)C(=O)NCCCCc1ccccc1` (mixture of isomers) [Example 22, (2RS,3R)-N-(4-phenylbutyl)-3-amino-2-hydroxy-4-phenyl-butanamide hydrochloride] is 1.7-fold lower in IC50: 5.8 µM for the first, 3.4 µM for the second.

`N[C@H](CC1CCCCC1)C(O)C(=O)NCCCCNS(=O)(=O)c1cccc(C(F)(F)F)c1` (mixture of isomers) [Example 84, (2RS,3R)-3-amino-4-cyclohexyl-2-hydroxy-N-(4-(((3-(trifluoromethyl)phenyl)sulfonyl)amino)butyl)butanamide hydrochloride] and `N[C@H](CC1CCCCC1)C(O)C(=O)NCCCCNS(=O)(=O)c1ccc2ccccc2c1` (mixture of isomers) [Example 87, (2RS,3R)-3-amino-4-cyclohexyl-2-hydroxy-N-(4-((2-naphthylsulfonyl)amino)butyl)butanamide hydrochloride] are within 1.5-fold of each other in IC50: 3.3 µM for the first, 2.7 µM for the second.

Going from `COc1ccc(S(=O)(=O)NCCCCNC(=O)C(O)[C@H](N)CC2CCCCC2)cc1OC` (mixture of isomers) [Example 85, (2RS,3R)-3-amino-4-cyclohexyl-N-(4-(((3,4-dimethoxyphenyl)sulfonyl)amino)butyl)-2-hydroxybutanamide hydrochloride] to `N[C@H](CC1CCCCC1)C(O)C(=O)NCCCc1ccccc1` (mixture of isomers) [Example 109, (2RS,3R)-3-Amino-4-cyclohexyl-2-hydroxy-N-(3-phenylpropyl)butanamide Hydrochloride], the IC50 falls from 3.2 µM to 1.7 µM (1.9-fold). The second is the more potent here.

Compared with `N[C@H](CC1CCCCC1)C(O)C(=O)NCc1ccco1` (mixture of isomers) [Example 100, (2RS,3R)-3-Amino-4-cyclohexyl-N-(2-furylmethyl)-2-hydroxybutanamide Hydrochloride], `N[C@H](CC1CCCCC1)C(O)C(=O)NCCc1ccccc1Cl` (mixture of isomers) [Example 108, (2RS,3R)-3-Amino-N-(2-chlorophenethyl)-4-cyclohexyl-2-hydroxybutanamide Hydrochloride] is 9.4-fold lower in IC50: 5.9 µM for the first, 0.63 µM for the second.

`N[C@H](CC1CCCCC1)C(O)C(=O)NCCCN1CCCC1=O` (mixture of isomers) [Example 102, (2RS,3R)-3-Amino-4-cyclohexyl-2-hydroxy-N-(3-(2-oxo-1-pyrrolidinyl)propyl)butanamide Hydrochloride] and `CC(C)(C)OC(=O)CNC(=O)C(O)[C@H](N)CC1CCCCC1` (mixture of isomers) [Example 126, tert-butyl (2RS,3R)-2-((3-amino-4-cyclohexyl-2-hydroxybutanoyl)amino)acetate hydrochloride] are the same in IC50: 13 µM for the first, 13 µM for the second.

First: N[C@H](CC1CCCCC1)C(O)C(=O)Nc1ccccc1 (mixture of isomers) [Example 107, (2RS,3R)-3-Amino-4-cyclohexyl-2-hydroxy-N-phenylbutanamide Hydrochloride]
Second: N[C@H](CC1CCCCC1)C(O)C(=O)Nc1cccc(Cl)c1 (mixture of isomers) [Example 148, (2RS,3R)-3-amino-N-(3-chlorophenyl)-4-cyclohexyl-2-hydroxybutanamide]
The IC50 of the first is 2.3-fold higher: 1.2 µM for the first, 0.52 µM for the second.

Compared with `CC(C)(C)C1CCC(NC(=O)C(O)[C@H](N)CC2CCCCC2)CC1` (mixture of isomers) [Example 111, (2RS,3R)-3-Amino-N-(4-(tert-butyl)cyclohexyl)-4-cyclohexyl-2-hydroxybutanamide Hydrochloride], `N[C@H](CC1CCCCC1)C(O)C(=O)NC(CO)CO` (mixture of isomers) [Example 136, (2RS,3R)-3-amino-4-cyclohexyl-2-hydroxy-N-(2-hydroxy-1-(hydroxymethyl)ethyl)butanamide trifluoroacetate] is 4.6-fold lower in IC50: 8.2 µM for the first, 1.8 µM for the second.

Going from `N[C@H](CC1CCCCC1)C(O)C(=O)Nc1cc(Cl)cc(Cl)c1` (mixture of isomers) [Example 112, (2RS,3R)-3-Amino-4-cyclohexyl-N-(3,5-dichlorophenyl)-2-hydroxybutanamide Hydrochloride] to `N[C@H](CC1CCCCC1)C(O)C(=O)Nc1ccc(Cl)cc1` (mixture of isomers) [Example 147, (2RS,3R)-3-amino-N-(4-chlorophenyl)-4-cyclohexyl-2-hydroxybutanamide], the IC50 falls from 1.5 µM to 1 µM (1.5-fold).

Going from `COC(=O)C(Cc1ccccc1)NC(=O)C(O)[C@H](N)CC1CCCCC1` (mixture of isomers) [Example 127, methyl (2RS,3R)-2-((3-amino-4-cyclohexyl-2-hydroxybutanoyl)amino)-3-phenylpropanoate hydrochloride] to `COc1ccccc1NC(=O)C(O)[C@H](N)CC1CCCCC1` (mixture of isomers) [Example 146, (2RS,3R)-3-amino-4-cyclohexyl-2-hydroxy-N-(2-methoxyphenyl)butanamide], the IC50 falls from 28 µM to 1.5 µM (19-fold). The second is the more potent here.

First: C[C@H](NC(=O)C(O)[C@H](N)CC1CCCCC1)c1cccc2ccccc12 (mixture of isomers) [Example 133, (2RS,3R)-3-amino-4-cyclohexyl-2-hydroxy-N-((1S)-1-(1-naphthyl)ethyl)butanamide hydrochloride]
Second: C[C@@H](NC(=O)C(O)[C@H](N)CC1CCCCC1)c1cccc2ccccc12 (mixture of isomers) [Example 134, (2RS,3R)-3-amino-4-cyclohexyl-2-hydroxy-N-((1R)-1-(1-naphthyl)ethyl)butanamide hydrochloride]
The IC50 of the first is 11-fold lower: 0.27 µM for the first, 3.1 µM for the second. The first is the more potent here.

First: N[C@H](CC1CCCCC1)C(O)C(=O)NCCc1ccc(F)cc1 (mixture of isomers) [Example 142, (2RS,3R)-3-amino-4-cyclohexyl-N-(4-fluorophenethyl)-2-hydroxybutanamide hydrochloride]
Second: N[C@H](CC1CCCCC1)C(O)C(=O)Nc1ccc(F)cc1 (mixture of isomers) [Example 144, (2RS,3R)-3-amino-4-cyclohexyl-N-(4-fluorophenyl)-2-hydroxybutanamide]
The IC50 of the first is 5.2-fold lower: 0.4 µM for the first, 2.1 µM for the second. The first is the more potent here.

`Cc1ccc(NC(=O)C(O)[C@H](N)CC2CCCCC2)cc1` (mixture of isomers) [Example 143, (2RS,3R)-3-amino-4-cyclohexyl-2-hydroxy-N-(4-methylphenyl)butanamide] and `COc1ccc(NC(=O)C(O)[C@H](N)CC2CCCCC2)cc1` (mixture of isomers) [Example 145, (2RS,3R)-3-amino-4-cyclohexyl-2-hydroxy-N-(4-methoxyphenyl)butanamide] are within 1.5-fold of each other in IC50: 0.87 µM for the first, 1.2 µM for the second.

Work on `N[C@H](CC1CCCCC1)C(O)C(=O)Nc1ccccc1Cl` (mixture of isomers) [Example 149, (2RS,3R)-3-amino-N-(2-chlorophenyl)-4-cyclohexyl-2-hydroxybutanamide] yielded an IC50 of 0.93 µM.

Same assay, conditions: recombinant MetAP2 4 μg/mL, pH 7.4, Met-Ala-Ser substrate, 20 minutes

Going from `CCOC(=O)CCCNC(=O)C(O)[C@H](N)CC1CCCCC1` (mixture of isomers) [Example 25, (2RS,3R)-N-(3-(carboethoxy)propyl)-3-amino-2-hydroxy-4-cyclohexyl-butanamide hydrochloride] to `N[C@H](CC1CCCCC1)C(O)C(=O)NC1CCCc2ccccc21` (mixture of isomers) [Example 110, (2RS,3R)-3-Amino-4-cyclohexyl-2-hydroxy-N-(1,2,3,4-tetrahydro-1-naphthalenyl)butanamide Hydrochloride], the IC50 falls from 1.9 µM to 1 µM (1.9-fold). The second is the more potent here.
